US12358919B2, “Antibacterial compounds” (Universita' degli Studi di Siena, priority 2019, dated 2025)

How the values were obtained:
[1] = test system: K. pneumoniae SI-4B; assay: Chequerboard analysis with polymyxin E1 (average FIC index); format: cell-based, Klebsiella pneumoniae; conditions: K. pneumoniae SI-4B (colistin-resistant); compound + polymyxin E1
[2] = test system: Escherichia coli CCUG^T; assay: microbe, parasite or virus in culture; format: cell-based; conditions: Escherichia coli
Experimental: (§1) Growth inhibition or killing of bacteria was investigated using conventional methods widely described in the scientific literature. Parameters such as the Minimum Inhibitory Concentration (MIC) were determined as described in Clinical Laboratory Standard Institute (CLSI) document M07 “Methods for Dilution Antimicrobial Susceptibility Tests for Bacteria That Grow Aerobically, 11th Edition” (2018). Synergistic activity of the compounds described in the present specification were determined by measuring the variation of the MIC's compound in the absence and presence of a sub-inhibitory concentration of a suitable antibacterial agent, such as polymyxin E1. Furthermore, the Fractional Inhibitory Concentrations (FICs) were measured using a chequerboard analysis to determine the average FIC index (FICI), whose value is known to characterize the interaction between two compounds and/or drugs (≤0.5, synergistic interaction; >0.5 and <2, no interaction, additive effect; ≥2, antagonistic interaction). Furthermore, the selectivity of the compounds was investigated by measuring their cytotoxic effect on mammalian cell lines (e.g. HeLa cells).
(§2) Several methods were used to investigate the synergistic activity of the compounds, including (a) the determination of the MIC in the presence of a sub-inhibitory concentration of a suitable antibacterial agent, (b) the determination of the average FICI using a chequerboard analysis and (c) the time-kill curve analysis of a suitable agent (at a sub-inhibitory concentration) in the absence and presence of the pyrazolo[4,3-b]pyridin-6-carboxamide compound at a fixed concentration of 2 or 8 mg/L.
(§3) The MIC of the compound was determined alone and in the presence of a fixed and sub-inhibitory concentration of a suitable antibacterial agent of the polymyxin class, such as polymyxin E1 (colistin). The potentiation fold was computed as the ratio MICcompound/MICcompound+polymyxin E. Tested organisms included Escherichia coli CCUG^TKlebsiella pneumoniae ATCC 13833 and Acinetobacter baumannii ATCC 17978, which show a colistin MIC of 0.5, 0.5 and 1 mg/L, respectively.

[3] = test system: Acinetobacter baumannii ATCC 17978; assay: microbe, parasite or virus in culture; format: cell-based
Experimental: as §1, §2, §3

[4] = test system: Klebsiella pneumoniae ATCC 13833; assay: microbe, parasite or virus in culture; format: cell-based
Experimental: as §1, §2, §3

[5] = test system: K. pneumoniae SI-27; assay: Chequerboard analysis with polymyxin E1 (average FIC index); format: cell-based, Klebsiella pneumoniae; conditions: K. pneumoniae SI-27 (colistin-resistant); compound + polymyxin E1

## CCCCn1c(=O)c(C(=O)NC23CC4CC(CC(C4)C2)C3)c(O)c2nn(CCO)cc21 [Im, N-(Adamantan-1-yl)-4-(1-butyl)-4,5-dihydro-7-hydroxy-2-(2-hydroxyethyl)-5-oxo-2H-pyrazolo[4,3-b]pyridin-6-carboxamide]
[1]
  Average FIC index: 0.31
[2]
  MIC: > 512 µg/mL
[3]; A. baumannii ATCC 17978, ratio MICcompound/MICcompound+polymyxin E
  Potentiation fold: ≥64
[3]; A. baumannii ATCC 17978, with 0.25xMIC polymyxin E1 (0.25 mg/L)
  MIC in presence of colistin: 8 µg/mL
[3]; Acinetobacter baumannii, ATCC17978
  MIC: > 512 µg/mL
[4]; K. pneumoniae ATCC 13833, ratio MICcompound/MICcompound+polymyxin E
  Potentiation fold: ≥64
[4]; K. pneumoniae ATCC 13833, with 0.25xMIC polymyxin E1 (0.12 mg/L)
  MIC in presence of colistin: 8 µg/mL
[4]; Klebsiella pneumoniae, ATCC13833
  MIC: > 512 µg/mL
[5]
  Average FIC index: 0.41
